The values below come from patent publication US20230233615A1, “PHARMACEUTICAL COMPOSITION FOR TREATING ALZHEIMER'S DISEASE” (Gwo Xi Stem Cell Applied Technology Co., Ltd., priority 2022, published 2023).

One experiment concerns IL-18. The experiment can be described thus: Inhibition on NLRP3 by EVs, IL-18 in BV2 microglia cell line. Format: cell-based. To be noted: BV2 cells, LPS + ATP, 48 hours, 100 mM of mefenamic acid. As to the method:
(§1) In order to investigate anti-inflammatory and NLR family pyrindomain containing 3 (NLRP3) inflammasome inhibitory effects of ADSC-derived EVs, a study was performed using a BV2 microglia cell line (hereinafter referred to as BV2 cells). BV2 cells were initiated with 100 ng/ml of LPS and 5 mM of ATP, and 100 mM of mefenamic acid (a positive control group) or a low dose of ADSC-derived EVs (2×10^5 particles/cell) or a high dose of ADSC-derived EVs (2×10^6 particles/cell) in a humidified environment with 5%CO2 at 37° C. for 48 hours.

The subject of another experiment is IL-1β. The experiment can be described thus: Inhibition on NLRP3 by EVs, IL-1β in BV2 microglia cell line. Type of experiment: cell-based. Particulars: BV2 cells, LPS + ATP, 48 hours, 100 mM of mefenamic acid. As to the method:
as §1

SMILES strings stand for the structures.

For `Cc1cccc(Nc2ccccc2C(=O)O)c1C` [mefenamic acid], the “inhibited expression of IL-18 (compared to PBS group)” value with IL-18 (first stated set) is 29.2%. Also, the “expression of IL-18 (compared to PBS group)” value in the experiment on IL-18 (second stated set) is “no significant change”. For the same compound, the “inhibited expression of IL-1β (compared to PBS group)” value in the experiment on IL-1β (first stated set) is on record as 35.4%; in the experiment on IL-1β (second stated set), 69.5%.
